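Compound exposure: 48 hours, 5 concentrations, 96-well plates. GI50 is the concentration that inhibits growth by half. TGI marks complete inhibition of growth.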
Tests used:
Assay in all cases: growth of human tumour cells (NCI), 48 h
[1] = test system: A549 NSCLC
[2] = test system: SR leukemia
[3] = test system: MDA-MB-435
[4] = test system: HL-60(TB) leukemia
[5] = test system: UO-31 renal
[6] = test system: RPMI-8226 leukemia
[7] = test system: NCI-H460 lung
[8] = test system: EKVX NSCLC
[9] = test system: OVCAR-4 ovarian
[10] = test system: SNB-19 CNS
[11] = test system: HT29 colon
[12] = test system: HCT-116 colon
[13] = test system: NCI-H23 lung
[14] = test system: 786-0 renal
[15] = test system: OVCAR-8 ovarian
[16] = test system: MOLT-4 leukemia
[17] = test system: SK-MEL-28 melanoma
[18] = test system: CAKI-1 renal
[19] = test system: SW-620 colon
[20] = test system: U251 CNS
[21] = test system: SK-MEL-2 melanoma
[22] = test system: SF-539 CNS
[23] = test system: NCI/ADR-RES ovarian
[24] = test system: HOP-92 NSCLC
[25] = test system: K-562 leukemia
[26] = test system: DU-145 prostate
[27] = test system: BT-549 breast
[28] = test system: RXF 393 renal
[29] = test system: TK-10 renal
[30] = test system: IGROV1 ovarian
[31] = test system: SNB-75 CNS
[32] = test system: UACC-62 melanoma
[33] = test system: PC-3 prostate
[34] = test system: MDA-MB-231 breast
[35] = test system: M14 melanoma
[36] = test system: MALME-3M melanoma
[37] = test system: NCI-H522 lung
[38] = test system: T-47D breast
[39] = test system: LOX IMVI melanoma
[40] = test system: ACHN renal
[41] = test system: HCC-2998 colon
[42] = test system: HS 578T breast
[43] = test system: SK-MEL-5 melanoma
[44] = test system: MCF7 breast
[45] = test system: UACC-257 melanoma
[46] = test system: HCT-15 colon
[47] = test system: KM12 colon
[48] = test system: SF-295 CNS
[49] = test system: CCRF-CEM leukemia
[50] = test system: SF-268 CNS
[51] = test system: HOP-62 NSCLC
[52] = test system: OVCAR-5 ovarian
[53] = test system: OVCAR-3 ovarian
[54] = test system: SN12C renal

C=C1CC[C@@H]2C(C)(C)[C@H](O)CC[C@@]2(C)[C@@H]1COc1ccc2ccc(=O)oc2c1
GI50 [1]: 21.9 µM | TGI [1]: 60 µM | GI50 [2]: 40 µM | TGI [2]: > 100 µM | GI50 [3]: 25.3 µM | TGI [3]: 72.3 µM | GI50 [4]: 24.1 µM | TGI [4]: 57.6 µM | TGI [5]: 38.4 µM | GI50 [6]: 15.6 µM | TGI [6]: 51.9 µM | GI50 [7]: 26.5 µM | TGI [7]: 71.1 µM | GI50 [8]: 29 µM | TGI [8]: > 100 µM | GI50 [9]: 17.2 µM | TGI [9]: 56.6 µM | GI50 [10]: 33.7 µM | TGI [10]: > 100 µM | GI50 [11]: 32.3 µM | TGI [11]: > 100 µM | GI50 [12]: 26 µM | TGI [12]: 81.4 µM | GI50 [13]: 24.5 µM | TGI [13]: 70.1 µM | GI50 [14]: 25 µM | TGI [14]: 68 µM | GI50 [15]: 24.2 µM | TGI [15]: 71 µM | GI50 [16]: 23.9 µM | TGI [16]: 62 µM | GI50 [17]: 28.7 µM | TGI [17]: 80.6 µM | GI50 [18]: 23.2 µM | TGI [18]: 74.5 µM | GI50 [19]: 34.5 µM | TGI [19]: > 100 µM | GI50 [20]: 27.5 µM | TGI [20]: > 100 µM | GI50 [21]: 23.9 µM | TGI [21]: 65.3 µM | GI50 [22]: 29.9 µM | TGI [22]: > 100 µM | GI50 [23]: 22.9 µM | TGI [23]: 62.7 µM | GI50 [24]: 12.5 µM | TGI [24]: 70.5 µM | GI50 [25]: 26.9 µM | TGI [25]: > 100 µM | GI50 [26]: 30.1 µM | TGI [26]: > 100 µM | GI50 [27]: 20.6 µM | TGI [27]: 64.1 µM | GI50 [28]: 20.4 µM | TGI [28]: 79.5 µM | GI50 [29]: 35.6 µM | TGI [29]: > 100 µM | GI50 [30]: 27.7 µM | TGI [30]: > 100 µM | TGI [31]: 46.3 µM | TGI [32]: 48.4 µM | GI50 [33]: 19.7 µM | TGI [33]: 66.3 µM | GI50 [34]: 30.4 µM | TGI [34]: > 100 µM | GI50 [35]: 22.5 µM | TGI [35]: 55.5 µM | GI50 [36]: 20.3 µM | TGI [36]: 64.2 µM | GI50 [37]: 21.2 µM | TGI [37]: 77.4 µM | GI50 [38]: 14.6 µM | TGI [38]: 64.1 µM | GI50 [39]: 23.3 µM | TGI [39]: 56.5 µM | GI50 [40]: 31.6 µM | TGI [40]: > 100 µM | GI50 [41]: 42.3 µM | TGI [41]: > 100 µM | GI50 [42]: 25.1 µM | TGI [42]: 86.8 µM | GI50 [43]: 17.9 µM | TGI [43]: 37 µM | GI50 [44]: 24.3 µM | TGI [44]: 80.8 µM | GI50 [45]: 26.9 µM | TGI [45]: 69.5 µM | GI50 [46]: 27 µM | TGI [46]: > 100 µM | GI50 [47]: 21.1 µM | TGI [47]: 51 µM | GI50 [48]: 21.3 µM | TGI [48]: 62.4 µM | GI50 [49]: 28.4 µM | TGI [49]: > 100 µM | GI50 [50]: 28.4 µM | TGI [50]: 90.6 µM | GI50 [51]: 28.2 µM | TGI [51]: > 100 µM | GI50 [52]: 38.2 µM | TGI [52]: > 100 µM | GI50 [53]: 22.3 µM | TGI [53]: 56 µM | GI50 [54]: 28.2 µM | TGI [54]: > 100 µM
